# Laboratory results reported in ChEMBL document CHEMBL1201862, “PubChem BioAssay data set” (2004).
# Activity calls are given as the source filed them.
# Legend:
# [1] = system: Streptococcus sp. 'group A'; assay: Streptococcus pyogenes SK(-)GAS viability under kanamycin – luminescence, BacTiterGlo, confirmation, counter-screen for streptokinase expression inhibitor project, dose response (AID 1900); assay type: functional, organism-based
# [2] = target: T1, Heat shock factor protein 1 (Mus musculus, UniProt P38532); assay: decrease of HSF1-responsive luciferase luminescence – cell-based, NIH3T3, dose retest, confirmation (AID 2382); assay type: functional;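 further: NIH3T3 fibroblasts with HSF1-driven luciferase reporter stressed by proteasome inhibitor MG132; luminescence from HSF1-driven luciferase expression after 8 hours of MG132 stress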
# T1 sequence (P38532 whole entry): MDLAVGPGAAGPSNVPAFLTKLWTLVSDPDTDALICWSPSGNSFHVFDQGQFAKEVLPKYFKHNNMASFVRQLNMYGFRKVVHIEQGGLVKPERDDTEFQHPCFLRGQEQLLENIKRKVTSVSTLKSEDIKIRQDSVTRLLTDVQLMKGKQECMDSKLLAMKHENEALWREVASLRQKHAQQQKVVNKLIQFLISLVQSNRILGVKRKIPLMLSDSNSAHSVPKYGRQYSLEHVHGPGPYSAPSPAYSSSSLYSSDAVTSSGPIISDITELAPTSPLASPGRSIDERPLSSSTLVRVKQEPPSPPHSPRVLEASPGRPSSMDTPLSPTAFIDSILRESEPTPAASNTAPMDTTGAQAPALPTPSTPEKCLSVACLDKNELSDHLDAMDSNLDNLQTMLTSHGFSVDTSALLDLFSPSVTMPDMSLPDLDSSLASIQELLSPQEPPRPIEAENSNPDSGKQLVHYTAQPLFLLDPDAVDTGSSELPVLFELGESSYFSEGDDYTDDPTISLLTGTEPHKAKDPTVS
# Streptokinase A = target: T2, Streptokinase A (Streptococcus pyogenes serotype M1, UniProt P10520); assay: viability-normalized secreted streptokinase activity reduction – plasminogen activation absorbance, OD405, dose response (AID 1914); assay type: functional, Streptococcus pyogenes M1 GAS;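 further: secreted streptokinase activity via plasminogen activation per viability signal from cell pellet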
# T2 sequence (P10520 whole entry): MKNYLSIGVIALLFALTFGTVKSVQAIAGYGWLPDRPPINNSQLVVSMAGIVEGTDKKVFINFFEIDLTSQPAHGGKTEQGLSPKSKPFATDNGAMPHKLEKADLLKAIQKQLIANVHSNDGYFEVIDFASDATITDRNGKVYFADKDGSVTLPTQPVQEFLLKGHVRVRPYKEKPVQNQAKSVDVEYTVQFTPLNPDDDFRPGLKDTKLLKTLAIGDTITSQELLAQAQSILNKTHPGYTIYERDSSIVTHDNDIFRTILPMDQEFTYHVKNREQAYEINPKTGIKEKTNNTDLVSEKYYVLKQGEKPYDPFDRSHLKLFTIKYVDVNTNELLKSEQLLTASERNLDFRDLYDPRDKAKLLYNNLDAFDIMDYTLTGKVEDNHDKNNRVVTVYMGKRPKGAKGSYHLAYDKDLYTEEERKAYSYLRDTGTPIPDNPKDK
# Streptococcus = assay: GAS UMAA2166 growth inhibition – luminescence, BacTiterGlo, counter-screen for streptokinase expression inhibitor project, dose response (AID 1915); assay type: functional, organism-based;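 further: potency for reduction of bacterial viability or growth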
# Escherichia coli = assay: microbe, parasite or virus in culture
# [3] = target: Lysine-specific demethylase 4A (Homo sapiens, UniProt O75164); assay: inhibition of JMJD2A H3K9me3 demethylation – biochemical, DELFIA europium, cherry-picked samples, selectivity assay for GASC-1 inhibitor project, dose response (AID 488840)
# [4] = target: Voltage-gated inwardly rectifying potassium channel KCNH2 (Homo sapiens, UniProt Q12809); settings: Potency;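 further: confirmatory quantitative high-throughput screen measuring inhibition of hERG channel activity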
# Sequence of Voltage-gated inwardly rectifying potassium channel KCNH2 (Q12809 whole entry): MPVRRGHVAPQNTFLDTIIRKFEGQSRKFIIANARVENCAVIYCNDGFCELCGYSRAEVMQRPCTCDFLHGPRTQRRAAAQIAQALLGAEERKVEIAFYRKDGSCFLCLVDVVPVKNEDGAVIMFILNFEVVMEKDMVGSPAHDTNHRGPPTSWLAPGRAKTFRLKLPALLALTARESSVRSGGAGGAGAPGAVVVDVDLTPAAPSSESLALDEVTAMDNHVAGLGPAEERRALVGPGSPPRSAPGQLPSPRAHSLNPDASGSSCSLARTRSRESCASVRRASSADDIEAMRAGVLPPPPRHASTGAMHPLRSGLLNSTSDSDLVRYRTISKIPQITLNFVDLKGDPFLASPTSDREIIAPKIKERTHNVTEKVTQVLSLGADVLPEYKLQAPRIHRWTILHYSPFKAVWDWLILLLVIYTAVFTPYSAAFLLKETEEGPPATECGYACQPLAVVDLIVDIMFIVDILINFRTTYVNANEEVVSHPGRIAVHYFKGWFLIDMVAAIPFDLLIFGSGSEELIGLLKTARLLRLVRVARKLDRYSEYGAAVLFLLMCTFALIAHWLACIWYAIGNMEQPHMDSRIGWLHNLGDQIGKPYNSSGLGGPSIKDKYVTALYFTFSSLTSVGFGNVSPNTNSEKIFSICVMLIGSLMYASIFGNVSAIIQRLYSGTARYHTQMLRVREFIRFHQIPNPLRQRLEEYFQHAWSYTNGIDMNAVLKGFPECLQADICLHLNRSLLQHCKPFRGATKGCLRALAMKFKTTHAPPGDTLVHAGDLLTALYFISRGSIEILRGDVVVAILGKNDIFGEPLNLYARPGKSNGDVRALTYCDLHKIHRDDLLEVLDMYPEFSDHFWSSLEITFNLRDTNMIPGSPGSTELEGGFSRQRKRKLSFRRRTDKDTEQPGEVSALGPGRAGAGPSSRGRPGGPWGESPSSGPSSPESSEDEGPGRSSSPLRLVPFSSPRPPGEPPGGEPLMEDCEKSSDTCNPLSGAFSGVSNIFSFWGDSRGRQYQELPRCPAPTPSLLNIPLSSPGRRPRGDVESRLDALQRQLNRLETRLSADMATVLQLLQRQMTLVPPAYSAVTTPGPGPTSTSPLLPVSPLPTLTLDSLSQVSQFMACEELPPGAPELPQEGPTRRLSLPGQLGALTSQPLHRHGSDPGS
# [5] = target: T3, Mannose-6-phosphate isomerase (Homo sapiens, UniProt P34949); assay: phosphomannose isomerase inhibition – biochemical, fluorescence intensity, confirmation (AID 1535)
# T3 sequence (P34949 whole entry): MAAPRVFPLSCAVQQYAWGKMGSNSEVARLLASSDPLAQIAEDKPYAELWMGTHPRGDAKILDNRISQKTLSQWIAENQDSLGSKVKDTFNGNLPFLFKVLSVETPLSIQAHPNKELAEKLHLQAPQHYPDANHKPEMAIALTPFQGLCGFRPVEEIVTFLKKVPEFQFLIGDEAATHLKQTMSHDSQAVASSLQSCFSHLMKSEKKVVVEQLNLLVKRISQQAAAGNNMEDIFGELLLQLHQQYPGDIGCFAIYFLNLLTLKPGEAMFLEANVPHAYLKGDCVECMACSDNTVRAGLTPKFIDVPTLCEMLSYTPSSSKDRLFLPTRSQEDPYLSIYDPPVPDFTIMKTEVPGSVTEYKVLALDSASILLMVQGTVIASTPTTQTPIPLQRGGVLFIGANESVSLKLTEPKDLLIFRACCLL
# Phosphomannomutase 2 = Phosphomannomutase 2 (Homo sapiens, UniProt O15305); assay: Counter screen SAR assay for PMM2 inhibitors via a fluorescence intensity assay. [Related pubchem assays (depositor defined):AID1545, AID1574]
# Sequence of Phosphomannomutase 2 (O15305 whole entry): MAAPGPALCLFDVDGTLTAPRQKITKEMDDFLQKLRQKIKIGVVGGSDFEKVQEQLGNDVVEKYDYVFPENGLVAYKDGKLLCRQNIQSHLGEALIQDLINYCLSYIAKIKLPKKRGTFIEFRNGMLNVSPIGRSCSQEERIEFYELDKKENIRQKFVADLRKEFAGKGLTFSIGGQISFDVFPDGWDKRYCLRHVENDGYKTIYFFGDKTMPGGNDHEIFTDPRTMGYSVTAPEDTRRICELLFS
# Cytochrome P450 3A4 = Cytochrome P450 3A4 (Homo sapiens, UniProt P08684); settings: Potency;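 further: confirmatory qHTS run detecting inhibitors and substrates of CYP3A4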
# [6] = target: T4, Tyrosine-protein phosphatase non-receptor type 7 (Homo sapiens, UniProt P35236); assay type: functional
# T4 sequence (P35236 whole entry): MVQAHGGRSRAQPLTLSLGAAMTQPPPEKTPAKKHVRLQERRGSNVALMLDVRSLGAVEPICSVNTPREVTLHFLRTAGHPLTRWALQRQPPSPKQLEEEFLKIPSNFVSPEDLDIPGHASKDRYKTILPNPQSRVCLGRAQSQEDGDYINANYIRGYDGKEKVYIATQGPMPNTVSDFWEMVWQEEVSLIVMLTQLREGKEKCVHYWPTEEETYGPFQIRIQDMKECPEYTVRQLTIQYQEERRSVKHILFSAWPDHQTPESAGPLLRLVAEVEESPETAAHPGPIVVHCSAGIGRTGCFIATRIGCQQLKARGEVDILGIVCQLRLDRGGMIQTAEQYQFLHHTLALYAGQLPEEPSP
# [7] = target: T5, Tyrosine-protein phosphatase non-receptor type 22 (Homo sapiens, UniProt Q9Y2R2); assay type: functional
# T5 sequence (Q9Y2R2 whole entry): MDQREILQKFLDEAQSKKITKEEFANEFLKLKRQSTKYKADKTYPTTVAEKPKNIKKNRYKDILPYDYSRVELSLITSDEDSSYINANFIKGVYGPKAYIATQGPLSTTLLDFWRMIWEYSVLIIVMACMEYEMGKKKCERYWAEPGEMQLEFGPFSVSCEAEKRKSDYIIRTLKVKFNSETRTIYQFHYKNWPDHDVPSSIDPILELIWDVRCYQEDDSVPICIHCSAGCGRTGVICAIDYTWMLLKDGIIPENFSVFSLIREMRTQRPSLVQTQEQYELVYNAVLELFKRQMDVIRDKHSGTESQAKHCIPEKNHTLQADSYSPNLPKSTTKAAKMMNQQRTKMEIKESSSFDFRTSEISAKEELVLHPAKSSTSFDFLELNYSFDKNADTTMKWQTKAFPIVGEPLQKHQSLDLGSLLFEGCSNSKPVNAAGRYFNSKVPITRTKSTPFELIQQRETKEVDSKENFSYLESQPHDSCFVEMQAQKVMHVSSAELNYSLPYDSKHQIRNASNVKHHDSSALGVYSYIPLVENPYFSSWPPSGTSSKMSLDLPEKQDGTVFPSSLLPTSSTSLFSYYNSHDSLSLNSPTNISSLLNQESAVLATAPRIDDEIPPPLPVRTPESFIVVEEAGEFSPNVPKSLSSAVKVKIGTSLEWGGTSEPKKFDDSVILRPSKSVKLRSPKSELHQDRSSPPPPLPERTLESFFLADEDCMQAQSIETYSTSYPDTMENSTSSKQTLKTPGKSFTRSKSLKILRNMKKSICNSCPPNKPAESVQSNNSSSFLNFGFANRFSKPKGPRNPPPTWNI
# [8] = target: T5, Tyrosine-protein phosphatase non-receptor type 22; assay type: functional; remark: listed apart in the source
# [9] = target: T6, Voltage-gated N-type calcium channel alpha-1B subunit/Amyloid beta A4 precursor protein-binding family A member 1 (Homo sapiens, UniProt Q00975+Q02410); assay type: protein assay
# T6 sequence (Q00975 whole entry): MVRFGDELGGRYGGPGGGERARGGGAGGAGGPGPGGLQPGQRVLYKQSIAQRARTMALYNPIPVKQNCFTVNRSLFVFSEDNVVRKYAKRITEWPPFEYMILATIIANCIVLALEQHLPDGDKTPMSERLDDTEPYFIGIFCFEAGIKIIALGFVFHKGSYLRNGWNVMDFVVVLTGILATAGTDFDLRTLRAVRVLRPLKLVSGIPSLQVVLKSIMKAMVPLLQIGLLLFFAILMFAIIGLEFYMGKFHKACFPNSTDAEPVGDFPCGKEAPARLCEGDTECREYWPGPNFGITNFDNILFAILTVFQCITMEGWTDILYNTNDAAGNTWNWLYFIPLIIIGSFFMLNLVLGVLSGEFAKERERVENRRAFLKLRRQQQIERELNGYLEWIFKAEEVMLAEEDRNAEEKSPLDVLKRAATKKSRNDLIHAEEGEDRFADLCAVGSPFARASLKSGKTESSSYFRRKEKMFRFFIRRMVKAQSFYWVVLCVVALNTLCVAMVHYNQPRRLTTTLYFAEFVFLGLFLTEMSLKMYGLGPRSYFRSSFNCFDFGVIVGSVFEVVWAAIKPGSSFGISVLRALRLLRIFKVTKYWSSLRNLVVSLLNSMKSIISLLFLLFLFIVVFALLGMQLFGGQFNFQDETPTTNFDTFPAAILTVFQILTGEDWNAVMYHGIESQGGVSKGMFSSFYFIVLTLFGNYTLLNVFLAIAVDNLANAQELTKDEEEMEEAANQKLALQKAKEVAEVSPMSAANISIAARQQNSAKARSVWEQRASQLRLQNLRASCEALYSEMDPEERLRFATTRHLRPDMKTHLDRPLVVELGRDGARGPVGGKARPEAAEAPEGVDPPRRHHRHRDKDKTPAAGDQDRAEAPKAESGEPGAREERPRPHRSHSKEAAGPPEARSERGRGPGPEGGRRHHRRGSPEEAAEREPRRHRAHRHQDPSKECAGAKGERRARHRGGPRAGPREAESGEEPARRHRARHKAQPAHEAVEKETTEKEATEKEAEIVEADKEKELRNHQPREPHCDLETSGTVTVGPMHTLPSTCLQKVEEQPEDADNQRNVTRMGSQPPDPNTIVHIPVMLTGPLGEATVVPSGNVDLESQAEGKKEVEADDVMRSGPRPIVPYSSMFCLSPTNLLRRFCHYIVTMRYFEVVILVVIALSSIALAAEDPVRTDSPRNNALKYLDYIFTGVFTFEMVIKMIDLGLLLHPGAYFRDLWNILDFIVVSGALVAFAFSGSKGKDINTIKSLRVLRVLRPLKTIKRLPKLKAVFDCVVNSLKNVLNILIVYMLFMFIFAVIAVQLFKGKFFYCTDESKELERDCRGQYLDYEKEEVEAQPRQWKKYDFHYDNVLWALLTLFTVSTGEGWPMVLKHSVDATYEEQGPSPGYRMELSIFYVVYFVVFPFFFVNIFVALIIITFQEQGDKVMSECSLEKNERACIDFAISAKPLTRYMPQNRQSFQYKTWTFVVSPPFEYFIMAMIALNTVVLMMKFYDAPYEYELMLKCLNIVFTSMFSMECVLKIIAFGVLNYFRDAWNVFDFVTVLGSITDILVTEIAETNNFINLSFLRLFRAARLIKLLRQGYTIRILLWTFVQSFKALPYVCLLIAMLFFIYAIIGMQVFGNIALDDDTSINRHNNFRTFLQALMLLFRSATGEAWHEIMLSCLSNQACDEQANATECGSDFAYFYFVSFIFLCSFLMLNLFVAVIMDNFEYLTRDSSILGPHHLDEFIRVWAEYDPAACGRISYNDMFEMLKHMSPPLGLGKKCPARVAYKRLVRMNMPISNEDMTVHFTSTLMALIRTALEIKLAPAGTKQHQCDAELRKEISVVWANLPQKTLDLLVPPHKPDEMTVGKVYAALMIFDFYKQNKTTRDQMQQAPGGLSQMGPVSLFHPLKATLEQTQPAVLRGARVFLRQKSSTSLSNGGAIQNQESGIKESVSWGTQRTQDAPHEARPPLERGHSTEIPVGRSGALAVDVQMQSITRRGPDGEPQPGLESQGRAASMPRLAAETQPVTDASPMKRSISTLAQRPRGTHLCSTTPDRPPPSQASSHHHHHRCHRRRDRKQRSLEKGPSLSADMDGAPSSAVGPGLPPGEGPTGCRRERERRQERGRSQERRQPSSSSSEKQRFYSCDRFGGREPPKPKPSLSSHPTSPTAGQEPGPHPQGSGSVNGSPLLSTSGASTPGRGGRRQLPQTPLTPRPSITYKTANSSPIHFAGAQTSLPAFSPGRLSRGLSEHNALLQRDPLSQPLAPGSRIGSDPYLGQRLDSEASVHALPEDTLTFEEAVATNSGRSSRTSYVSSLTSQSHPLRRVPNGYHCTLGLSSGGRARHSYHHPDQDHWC
# T6 sequence (Q02410 whole entry): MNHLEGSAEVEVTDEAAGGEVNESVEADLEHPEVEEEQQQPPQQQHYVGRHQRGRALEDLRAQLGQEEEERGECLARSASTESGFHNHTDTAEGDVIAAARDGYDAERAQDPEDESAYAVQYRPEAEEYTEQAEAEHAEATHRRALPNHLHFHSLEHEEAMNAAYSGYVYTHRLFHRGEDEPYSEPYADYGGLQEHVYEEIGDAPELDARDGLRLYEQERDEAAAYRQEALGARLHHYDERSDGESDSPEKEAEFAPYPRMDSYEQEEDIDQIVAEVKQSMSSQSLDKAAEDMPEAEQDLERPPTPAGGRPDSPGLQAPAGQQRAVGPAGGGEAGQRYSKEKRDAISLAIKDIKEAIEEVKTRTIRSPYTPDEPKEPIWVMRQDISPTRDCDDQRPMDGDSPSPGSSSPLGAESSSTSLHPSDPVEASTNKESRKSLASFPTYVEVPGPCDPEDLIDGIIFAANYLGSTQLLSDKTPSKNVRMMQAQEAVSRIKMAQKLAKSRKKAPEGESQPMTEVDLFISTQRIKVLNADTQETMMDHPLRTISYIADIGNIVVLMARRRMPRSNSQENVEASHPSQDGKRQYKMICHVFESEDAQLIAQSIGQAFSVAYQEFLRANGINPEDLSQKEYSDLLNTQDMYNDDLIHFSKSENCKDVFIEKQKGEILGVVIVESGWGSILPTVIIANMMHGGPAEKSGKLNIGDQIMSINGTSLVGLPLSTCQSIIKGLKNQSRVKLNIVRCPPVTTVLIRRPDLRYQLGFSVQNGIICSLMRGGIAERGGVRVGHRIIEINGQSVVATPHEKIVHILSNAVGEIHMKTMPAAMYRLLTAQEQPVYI
# [10] = target: T6, Voltage-gated N-type calcium channel alpha-1B subunit/Amyloid beta A4 precursor protein-binding family A member 1; assay type: protein assay; remark: listed apart in the source
# [11] = target: Eukaryotic translation initiation factor 4E (Mus musculus, UniProt P63073); assay: blockers of eIF4G binding by eIF4E – biochemical, TR-FRET, dose response (AID 855); assay type: functional;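 further: potency for disrupting eIF4E binding to eIF4GI seen as loss of FRET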
# Sequence of Eukaryotic translation initiation factor 4E (P63073 whole entry): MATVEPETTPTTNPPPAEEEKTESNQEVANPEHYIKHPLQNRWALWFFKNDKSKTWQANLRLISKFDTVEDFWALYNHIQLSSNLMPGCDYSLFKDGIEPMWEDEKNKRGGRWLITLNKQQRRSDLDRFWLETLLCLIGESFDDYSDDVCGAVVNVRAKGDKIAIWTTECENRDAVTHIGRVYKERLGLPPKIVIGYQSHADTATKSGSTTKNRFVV
compound,measurement,setting,value
N#Cc1nc(-c2ccccc2Cl)oc1N1CCN(C(=O)c2ccco2)CC1,EC50,[1],> 150 µM (not active)
same,EC50,[2],> 195 µM (not active)
same,EC50,Streptokinase A,> 150 µM (not active)
same,EC50,Streptococcus,> 150 µM (not active)
same,AC50,Escherichia coli,23.9 µM (active)
Cc1ccccc1Cn1c2ccccc2c2cnnc(O)c21,AC50,[3],30.2 µM (active)
O=[N+]([O-])c1cc([N+](=O)[O-])c2ccccc2c1,AC50,[4],15.8 µM (inconclusive)
O=[N+]([O-])c1ccc(/N=c2\ssnc2Cl)cc1,IC50,[5],23 µM (active)
same,IC50,Phosphomannomutase 2,> 100 µM (inactive)
CC(C)(c1ccccc1)c1ccc(O)cc1,AC50,Cytochrome P450 3A4,20 µM (inconclusive)
same,AC50,[4],28.2 µM (inconclusive)
C/C(=N\NC(=O)c1c(-c2ccccc2Cl)noc1C)c1cccc(NC(=O)C(C)C)c1,IC50,[6],> 79.4 µM (inactive)
same,IC50,[7],> 79.4 µM (inactive)
same,IC50,[8],> 79.4 µM (inactive)
Clc1nss/c1=N\c1ccccc1,IC50,[9],8.44 µM (active)
same,IC50,[10],8.07 µM (active)
same,IC50,[5],15.7 µM (active)
same,IC50,Phosphomannomutase 2,> 100 µM (inactive)
same,IC50,[11],50 µM (inactive)
